Measured values published in patent publication US6506707B1, “Herbicidal compositions containing plant essential oils and mixtures or blends thereof” (Ecosmart Technologies, Inc., priority 1999, dated 2003).

How the values were obtained:
dandelion = assay: Direct droplet bioassay on dandelion (Example 6); assay type: in vivo; conditions: individual oils, applied in one microliter of methanol
Protocol: Various plant essential oils were tested for toxicity (herbicidal action) against dandelion. Individual oils were ranked for relative toxicity using the direct droplet bioassay on the dandelion. EC50 values (amount producing 50% of maximum effect) were recorded in micrograms (all applied in one microliter of methanol) and plotted on a graph for comparison.

[1] = test system: greenhouse-grown cabbage leaves; assay: Direct droplet bioassay on cabbage leaves (Examples 5 and 7); assay type: in vivo; conditions: applied in one microliter of methanol; for EC50 (amount producing 50% of maximum effect): cabbage leaves; for relative toxicity to cabbage leaves (ranking by EC50): individual oils
Protocol: Various plant essential oils were tested for toxicity (herbicidal action) against greenhouse-grown cabbage leaves. Individual oils were ranked for relative toxicity using the direct droplet bioassay on the cabbage leaves.
Various plant essential oils were tested for synergistic effects on the toxicity (herbicidal action) against greenhouse-grown cabbage leaves. Individual oils were ranked for relative toxicity using the direct droplet bioassay on the cabbage leaves, and compared to mixtures at different ratios. […]

EC50 (amount producing 50% of maximum effect) [1] | SMILES | relative toxicity to dandelion (ranking by EC50) (dandelion) | relative toxicity to cabbage leaves (ranking by EC50) [1]
 | CC12CCC(CC1)C(C)(C)O2 [cineole, Cineole] | most toxic | 
10.7 micrograms | Cc1ccc(C(C)C)c(O)c1 [Thymol] |  | 
158.8 micrograms | CCC(=O)OCCc1ccccc1 [Phenethyl Propionate (PEP), Phenethyl Propionate] |  | 
 | Cc1ccc(C(C)C)c(O)c1 [white thymol, White Thymol] | most toxic | most toxic
 | O=C/C=C/c1ccccc1 [cinnamic aldehyde, Cinnamic Aldehyde] | most toxic | most toxic
 | CC(C)=CCCC(C)CC=O (stereo not drawn) [citronellal, Citronellal] | most toxic | most toxic
 | COC(=O)c1ccccc1O [methyl salicylate, Methyl Salicylate] | most toxic | most toxic

SMILES | EC50 (amount producing 50% of maximum effect) [1] | relative toxicity to dandelion (ranking by EC50) (dandelion) | relative toxicity to cabbage leaves (ranking by EC50) [1]
C=CCc1ccc(O)c(OC)c1 [Eugenol] | 46.1 micrograms |  | 
